The structures appear in SMILES notation. Counter-ions that a name gives are not always drawn. Like-named read-outs stand apart in the source and are kept apart here.

For one data set, the target named is T1, Androgen AR receptor (Homo sapiens, UniProt P10275).
T1 construct: expressed in transfected cells; host or cells: NIH3T3 cells
T1 sequence (P10275 1-920): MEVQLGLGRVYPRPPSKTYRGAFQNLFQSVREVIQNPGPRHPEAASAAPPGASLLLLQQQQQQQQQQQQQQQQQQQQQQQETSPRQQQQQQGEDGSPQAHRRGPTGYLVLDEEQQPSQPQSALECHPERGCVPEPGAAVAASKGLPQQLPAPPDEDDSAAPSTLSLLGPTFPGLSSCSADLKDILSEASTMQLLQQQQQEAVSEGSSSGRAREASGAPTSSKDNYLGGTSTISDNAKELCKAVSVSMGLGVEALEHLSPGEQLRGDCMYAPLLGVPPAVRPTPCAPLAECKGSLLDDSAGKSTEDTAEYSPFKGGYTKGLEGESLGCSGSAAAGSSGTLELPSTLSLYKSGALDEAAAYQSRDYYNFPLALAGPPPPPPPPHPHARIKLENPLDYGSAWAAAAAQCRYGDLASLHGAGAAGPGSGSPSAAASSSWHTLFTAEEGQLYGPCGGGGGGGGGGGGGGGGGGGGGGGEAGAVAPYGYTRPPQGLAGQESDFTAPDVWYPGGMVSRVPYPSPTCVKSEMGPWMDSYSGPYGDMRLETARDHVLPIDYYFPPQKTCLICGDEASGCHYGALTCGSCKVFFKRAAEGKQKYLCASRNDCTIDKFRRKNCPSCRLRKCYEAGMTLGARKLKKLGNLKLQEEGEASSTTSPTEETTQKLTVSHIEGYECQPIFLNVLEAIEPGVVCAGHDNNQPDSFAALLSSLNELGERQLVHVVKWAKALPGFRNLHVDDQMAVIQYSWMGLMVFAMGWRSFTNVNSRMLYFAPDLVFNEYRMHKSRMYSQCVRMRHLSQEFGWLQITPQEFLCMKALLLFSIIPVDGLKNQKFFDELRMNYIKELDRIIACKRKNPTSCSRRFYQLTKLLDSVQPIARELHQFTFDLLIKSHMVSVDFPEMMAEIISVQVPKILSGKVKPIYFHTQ
Description: Receptor Selection and Amplification Technology (R-SAT) functional receptor assay. It counts as cell-based. The following applies: for Emax: read-out: % Efficacy. On the procedure:
The functional receptor assay, Receptor Selection and Amplification Technology (R-SAT™), was used with minor modifications from the procedure described previously (Brann, M. R., U.S. Pat. No. 5,707,798, which is hereby incorporated herein by reference in its entirety) to screen compounds for efficacy at the Androgen AR receptor. Briefly, NIH3T3 cells were grown in roller bottles to 70-80% confluence. Cells were then transfected for 12-16 h with plasmid DNAs using Polyfect (Qiagen Inc.) as per the manufacturer's protocol. R-SAT assays were typically performed by transfecting 30 ug/bottle of receptor and 50 ug/bottle of β-galactosidase plasmid DNA. All receptor and helper constructs used were in mammalian expression vectors. Helpers are defined as signaling molecules that modulate both ligand-dependent and/or ligand-independent function of the AR receptor, typically co-activators.
NIH3T3 cells were transfected for 12-16 h, then trypsinized and frozen in DMSO. Frozen cells were later thawed, plated at 10,000-40,000 cells per well of a 96 well plate containing drug. Cells were then grown in a humidified atmosphere with 5% ambient CO2 for five days. Media was then removed from the plates and marker gene activity was measured by the addition of the β-galactosidase substrate o-nitrophenyl β-D-galactopyranoside (ONPG, in PBS with 5% NP-40). The resulting colorimetric reaction was measured in a spectrophotometric plate reader (Titertek Inc.) at […]. All data were analyzed using the computer program XLFit (IDBSm).

Data set [1] relates to castrated male Sprague Dawley rats. The experiment in a line: In vivo activity in castrated rats: wet tissue weights. Further details: species or system rat. How it is done: (§1) Test compounds of formula I are administered p.o. daily for two weeks to castrated male Sprague Dawley rats (n=3). The effects of the test compounds (1, 3, 10, 30 mg/kg) are compared to testosterone propionate (1 and 3 mg/kg s.c.; positive control) and vehicle (10% Tween80; negative control). Blood and wet weights of prostate gland and seminal vesicle are measured after sacrifice that occurs 24 hours after the last dose. Blood is collected in heparin collection tubes after sacrifice that occurred 24 hours after the last dose. Blood is centrifuged and plasma collected and plasma samples frozen.

The subject of data set [2] is Rat luteinizing hormone (LH) plasma levels. The experiment in a line: In vivo activity in castrated rats: plasma luteinizing hormone (ELISA). The following applies: castrated rats (FIG. 4). How it is done: as §1
Rat luteinizing hormone (LH) plasma levels are determined using an enzyme linked immunoabsorbent assay (ELISA) from Amersham as per manufacturer's instructions. The solid phase assay is based on the competition between unlabeled rLH and a fixed quantity of biotin labelled rLH for a limited amount of rLH specific antibody. A conjugate streptavidin/peroxidase allows for signal amplification and detection in presence of the substrate.

Setting [3] is: R-SAT, transfected NIH3T3 cells.

`Cc1c(N2[C@@H]3CC[C@H]2C[C@@H](O)C3)ccc(C#N)c1Cl` [165RL90, 2-Chloro-4-(3-endo-hydroxy-8-azabicyclo[3.2.1]octan-8-yl)-3-methylbenzonitrile, hydrochloride] gave an EC50 on Androgen AR receptor of 2 nM. For the same molecule, the Emax on Androgen AR receptor (setting [3]) was determined as 81%.
Consider `Cc1c(N2[C@@H]3CC[C@H]2C[C@@H](O)C3)ccc([N+](=O)[O-])c1Cl` [173FBA73bL, endo-8-(3-chloro-2-methyl-4-nitrophenyl)-8-azabicyclo[3.2.1]octan-3-ol], for which the Emax at Androgen AR receptor (setting [3]) turned out to be 80%. Besides, at Androgen AR receptor (R-SAT, transfected NIH3T3 cells, read-out: pEC50 (converted)), the EC50 was 3.16 nM.
For the molecule `Cc1c(N2[C@@H]3CC[C@H]2C[C@@](C)(O)C3)ccc(C#N)c1Cl` [198RL26, 2-Chloro-4-(3-endo-hydroxy-3-exo-methyl-8-azabicyclo[3.2.1]oct-8-yl)-3-methylbenzonitrile hydrochloride], the EC50 at Androgen AR receptor is 1.58 nM. Besides, on Androgen AR receptor (setting [3]), the Emax came out at 79%. Further, the “wet tissue weights (prostate, seminal vesicle, levator ani muscle)” value was “did not appear to significantly alter wet tissue weights” in data set [1] (3 mg/kg daily s.c. (so in the source) for two weeks, castrated rats); “appeared to significantly increase wet tissue weights, however, not to the extent of TP” in data set [1] (higher doses (3 and 10 mg/kg) daily, castrated rats). Besides, in data set [1] (castrated rats, two weeks daily dosing), the “dose relative to TP at which negative side effects (increased seminal vesicle and prostate size) become evident” value was “at least 100 × of TP”. In addition, the “plasma LH levels” value was “complete reversal” in data set [2] (10 mg/kg p.o. for 14 days) and “dose-dependent suppression of plasma LH levels” in data set [2] (various doses, p.o. for 14 days).
In the case of `CCC(=O)O[C@H]1CC[C@H]2[C@@H]3CCC4=CC(=O)CC[C@]4(C)[C@H]3CC[C@]12C` [testosterone propionate, reference compound], the “prostate wet tissue weight as compared to vehicle treatment” value in data set [1] (1 mg/kg daily s.c. for two weeks, castrated rats (FIG. 1)) was “significant increases”. In data set [1] (1 mg/kg daily s.c. for two weeks, castrated rats (FIG. 2)), the “seminal vesicle wet tissue weight as compared to vehicle treatment” value is listed as “significant increases”. Also, the “levator ani muscle wet tissue weight as compared to vehicle treatment” value in data set [1] (1 mg/kg daily s.c. for two weeks, castrated rats (FIG. 3)) is “significant increases”. Also, the “plasma LH levels” value in data set [2] (1 mg/kg, s.c. for 14 days) is reported as “restored LH levels to those obtained in naive rats”.

Values taken from patent publication US7585877B2, “Aminophenyl derivatives as selective androgen receptor modulators” (Acadia Pharmaceuticals, Inc., priority 2005, dated 2009).
